Test results reported in ChEMBL document CHEMBL4251605, “2-Substituted 7-trifluoromethyl-thiadiazolopyrimidones as alkaline phosphatase inhibitors. Synthesis, structure activity relationship and molecular docking study” (Eur J Med Chem, 2018).

Assays:
Format in all cases: cell-based
[1] = target: T1, Alkaline phosphatase, tissue-nonspecific isozyme (Homo sapiens, UniProt P05186); test: Inhibition of human TNAP expressed in COS7 cells preincubated for 5 to 7 mins followed by CDP-star substrate addition measured after 15 to 20 mins by luminescence assay
T1 sequence (P05186 whole entry): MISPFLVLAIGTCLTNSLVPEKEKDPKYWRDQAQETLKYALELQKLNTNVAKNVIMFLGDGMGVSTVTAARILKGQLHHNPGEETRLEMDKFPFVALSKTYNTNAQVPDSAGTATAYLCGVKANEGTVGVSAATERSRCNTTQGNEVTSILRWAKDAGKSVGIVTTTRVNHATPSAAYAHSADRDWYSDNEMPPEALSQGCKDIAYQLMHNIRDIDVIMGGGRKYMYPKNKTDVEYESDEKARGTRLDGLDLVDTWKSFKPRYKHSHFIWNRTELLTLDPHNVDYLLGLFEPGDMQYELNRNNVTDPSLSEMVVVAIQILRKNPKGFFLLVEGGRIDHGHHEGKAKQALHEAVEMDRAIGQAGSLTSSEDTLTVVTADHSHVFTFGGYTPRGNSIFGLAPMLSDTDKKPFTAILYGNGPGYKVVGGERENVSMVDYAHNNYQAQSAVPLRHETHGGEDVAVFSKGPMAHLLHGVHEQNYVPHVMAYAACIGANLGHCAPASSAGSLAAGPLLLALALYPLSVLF

[2] = target: Intestinal-type alkaline phosphatase (Homo sapiens, UniProt P09923); test: Inhibition of human IAP expressed in COS7 cells preincubated for 5 to 7 mins followed by CDP-star substrate addition measured after 15 to 20 mins by luminescence assay
Chain of Intestinal-type alkaline phosphatase (P09923 whole entry): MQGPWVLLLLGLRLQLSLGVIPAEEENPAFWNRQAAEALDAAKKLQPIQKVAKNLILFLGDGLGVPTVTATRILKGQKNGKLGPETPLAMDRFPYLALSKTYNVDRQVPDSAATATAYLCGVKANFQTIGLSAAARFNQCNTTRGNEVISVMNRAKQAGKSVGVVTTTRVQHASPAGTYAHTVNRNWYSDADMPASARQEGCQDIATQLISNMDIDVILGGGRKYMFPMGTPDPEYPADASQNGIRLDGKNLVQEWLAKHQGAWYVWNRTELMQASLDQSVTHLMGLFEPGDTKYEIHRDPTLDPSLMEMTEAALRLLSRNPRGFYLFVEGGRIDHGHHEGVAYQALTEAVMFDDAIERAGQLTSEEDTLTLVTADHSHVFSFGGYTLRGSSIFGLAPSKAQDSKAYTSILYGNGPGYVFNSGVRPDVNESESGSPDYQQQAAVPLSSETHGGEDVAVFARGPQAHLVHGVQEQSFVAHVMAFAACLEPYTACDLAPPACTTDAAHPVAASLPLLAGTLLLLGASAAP

Homo sapiens = species on record: Homo sapiens; test: Selectivity ratio of IC50 for human IAP expressed in COS7 cells to IC50 for human TNAP expressed in COS7 cells

IC50 [1] [nM] | IC50 [2] [nM] | SMILES | Ratio IC50 (Homo sapiens)
520 | 460 | Cc1cc(C)cc(-c2nn3c(=O)cc(C(F)(F)F)nc3s2)c1 | –
210 | 430 | O=c1cc(C(F)(F)F)nc2sc(-c3ccccc3)nn12 | –
540 | 1750 | Cc1ccc(-c2nn3c(=O)cc(C(F)(F)F)nc3s2)cc1C | –
560 | 1120 | N#Cc1cccc(-c2nn3c(=O)cc(C(F)(F)F)nc3s2)c1 | –
1060 | 360 | Cc1ccc(-c2nn3c(=O)cc(C(F)(F)F)nc3s2)cc1 | –
> 100000 | 4550 | CCc1ccc(-c2nn3c(=O)cc(C(F)(F)F)nc3s2)cc1 | –
620 | 480 | O=c1cc(C(F)(F)F)nc2sc(-c3cccc([N+](=O)[O-])c3)nn12 | –
1150 | 760 | COc1cc(OC)cc(-c2nn3c(=O)cc(C(F)(F)F)nc3s2)c1 | –
520 | 680 | O=c1cc(C(F)(F)F)nc2sc(-c3cccc(C(F)(F)F)c3)nn12 | –
930 | 790 | CCOc1ccc(-c2nn3c(=O)cc(C(F)(F)F)nc3s2)cc1 | –
1390 | 740 | O=c1cc(C(F)(F)F)nc2sc(-c3cccc(F)c3)nn12 | –
280 | 480 | COc1ccc(-c2nn3c(=O)cc(C(F)(F)F)nc3s2)cc1 | –

More lines, now with the values behind:

SMILES | IC50 [1] [nM] | IC50 [2] [nM] | Ratio IC50 (Homo sapiens)
C=CCNc1nn2c(=O)cc(C(F)(F)F)nc2s1 | 290 | 890 | 3
Nc1ccc(Nc2nn3c(=O)cc(C(F)(F)F)nc3s2)cc1 | 330 | 710 | –
O=c1cc(C(F)(F)F)nc2sc(-c3ccccc3F)nn12 | > 100000 | > 100000 | –
O=c1cc(C(F)(F)F)nc2sc(-c3ccc(OC(F)(F)F)cc3)nn12 | > 100000 | 240 | –
CCCNc1nn2c(=O)cc(C(F)(F)F)nc2s1 | 1440 | 310 | –
COc1ccccc1-c1nn2c(=O)cc(C(F)(F)F)nc2s1 | 3480 | > 100000 | –
CCOc1ccccc1-c1nn2c(=O)cc(C(F)(F)F)nc2s1 | 4520 | > 100000 | –
N[C@@H](Cc1ccccc1)C(=O)O [PHENYLALANINE] | – | 80200 | –
CCCCNc1nn2c(=O)cc(C(F)(F)F)nc2s1 | 880 | 710 | –
CCCCCNc1nn2c(=O)cc(C(F)(F)F)nc2s1 | 610 | 760 | –
CN(N)c1nn2c(=O)cc(C(F)(F)F)nc2s1 | 2020 | 2220 | –
CC(C)c1ccc(Nc2nn3c(=O)cc(C(F)(F)F)nc3s2)cc1 | 1980 | 31500 | –
CCCCN(CCCC)c1nn2c(=O)cc(C(F)(F)F)nc2s1 | 1530 | 4630 | –
O=c1cc(C(F)(F)F)nc2sc(-c3cccc(-c4ccccc4)c3)nn12 | 1120 | 1670 | –
COc1cccc(Nc2nn3c(=O)cc(C(F)(F)F)nc3s2)c1 | 380 | 440 | –
CN(C)CCNc1nn2c(=O)cc(C(F)(F)F)nc2s1 | 450 | 3750 | –
CCOc1ccc(Nc2nn3c(=O)cc(C(F)(F)F)nc3s2)cc1 | 1580 | 2020 | –
